Assay results taken from PMC9794608 (Frontiers in Veterinary Science, 2022).
Read-outs that look alike come from different tables or passages of the source.

Columns and labels:
[1] = Plasma pharmacokinetics after single and repeat oral dose, LC-MS/MS, non-compartmental analysis; type: in vivo, Beagle dogs; details: for Sapanisertib accumulation with repeat dosing: 0.1 mg/kg p.o. QOD; for Cmax: read-out: CMAX (sapanisertib in plasma)
Protocol: Laboratory Beagle dogs (Charles River Labs, Mattawan, MI) served as surrogates in testing compounds proposed for application in canine clinical cancer care. The animals were at least six months old and weighed 6.4–8.8 kg at the initiation of study. They had routine veterinary care and had not been used in any previous studies. The study was conducted in AAALAC-accredited animal facilities [Charles River Laboratories, Inc., Mattawan, MI; NIH Office of Laboratory Animal Welfare Assurance approval (https://olaw.nih.gov/assured/app/index.html)], under review, monitoring, and approval of the facility's Institutional Animal Care and Use Committee according to U.S. Public Health Service national guidelines and regulations for the care and use of laboratory animals. The study was not designed to incorporate Good Laboratory Practices (GLP) regulatory criteria. Animals on study were monitored daily or more frequently and body weights were recorded, while periodic specimens were obtained for laboratory analyses. Clinical pathology analyses were included for hematology, serum chemistry, coagulation, urinalysis, and chemical bioanalysis was accomplished for pharmacokinetics (PK) (Table 1, repeat dose study) (Charles River Laboratories, Mattawan, MI).
Six male and six female beagle dogs were enrolled in a parallel, three-arm, fixed, repeat oral-dose study. […] In Group 2, two male (23001, 23002) and two female (23501, 23502) dogs were given sapanisertib alone (0.1 mg/kg) every other day (p.o., QOD). […] All dogs were dosed on study day 1 to obtain single dose PK samples, and then dosed serially days 4–20. Dogs were fasted overnight prior to dosing and fed ad libitum 2 h (hrs) following dose administration.
Plasma samples for PK were collected at pre-dose (-7 days), then beginning day 1 following the initial dose of each study group at 1, 2, 4, 8, 24, 48, and 72 h. On day 6, plasma samples were collected pre-dose, then 1, 2, 4, 8, and 24 h post-dose. On days 10 and 15, a 2-h post-dose sample was collected. On day 20, plasma samples were drawn at pre-dose and 1, 2, 4, 8, 24, 48, and 72 h post-dose. Treatment schedule and clinical pathology specimen sampling intervals are outlined in Table 1.
Each 50 μL aliquot of known concentration standards, quality control sample, or study sample was mixed with 200 μL of working internal standard solution (10 ng/mL in acetonitrile). The samples were vortexed and centrifuged. A 150 μL aliquot of the resulting supernatant was transferred to a clean 96-well plate, evaporated, and reconstituted with 100 μL of water/acetonitrile (40/60, v/v). An aliquot was injected onto an LC-MS/MS XBridge BEH C18 liquid chromatography system (Waters Associates, Framingham, MA) having 50 x 2.1 mm (2.5 μm particle size) column with an isocratic flow consisting of water/formic acid (100/0.1, v/v) and acetonitrile/formic acid (100/0.1, v/v) at a flow rate of 0.3000 mL/min for analysis. The analyte and internal standard were detected using an API 6500+ triple quadrupole LC-MS/MS system (AB Sciex, LLC, Framingham, MA) equipped with an ESI (TurboIonSpray®) ionization source operated in the positive ion mode.
A non-compartmental approach to PK analysis was employed using Phoenix WinNonlin v8.3 (Certara Corp, Cary, NC) that was validated per FDA 21CFR Part 11 regulations. The maximum plasma concentration (CMAX) and the time of maximum plasma concentration (TMAX) were recorded as observed values. […] AUCINF (the AUC from time zero to infinity) was calculated by extrapolation by dividing CLAST (the last measurable drug concentration) by the rate constant of the terminal phase, λZ. This constant was determined from the slope of the terminal phase of the concentration-time curve using uniformly-weighted least-squares as the estimation procedure and acceptance criteria of (i) adjusted r^2 > 0.8, (ii) includes > 3 time points in the terminal phase occurring after the TMAX. […]

[2] = tested on: laboratory beagle dogs; assay: Sapanisertib escalating oral dose tolerability assessment; type: in vivo
Protocol: Determining a 0.1 mg/kg sapanisertib dosage for repeat dose studies was based upon extrapolation of previous studies in mice ([13], [20]), leading to initial evaluation of escalating individual oral doses of 0.1, 0.5, 0.65, and 0.8 mg/kg in one male (M), and one female (F) dog with a ≥3-day washout period between doses.
The initial efforts with sapanisertib focused on dose selection for ultimate testing in combination with orally administered trametinib dimethyl sulfoxide (trametinib) in nontumor-bearing laboratory beagle dogs. […] Sapanisertib dose escalation consisted of increased individual doses beginning with 0.10 mg/kg sapanisertib followed by a washout period of at least 3 days, and up to 7 days, between doses (Figure 2). Dogs lost body weight when dosed with ≥0.5 mg/kg sapanisertib. By day 23, the male dog had lost approximately 19% of initial body weight, while the female dog lost 7% body weight, and sapanisertib exposure was discontinued (Figure 2A). There was a trend toward recovery of modest amounts of body weight in these two dogs with the passage of sufficient time, post dose.
Figure 2 Sapanisertib escalating oral dose tolerability assessment in dogs. […] (A) Body weight (b.w.) changes with respect to time of first dose, in response to dosing as indicated. (B) Sapanisertib impact on select clinical pathology parameters for the testing days shown on x axis. Values on the y axis represent pre-treatment samples (0 days). Yellow-shaded area indicates reference range of values for normal healthy beagle dogs (Charles River Labs). Serum enzymes: ALT, alanine aminotransferase; AST, aspartate aminotransferase; ALP, alkaline phosphatase.

[3] = First dose (Day 1), sapanisertib 0.1 mg/kg p.o., mean (%CV), n = 4
[4] = canine sapanisertib only group 0.1 mg/kg versus human cancer patients receiving 4 mg oral sapanisertib
[5] = by day 23, escalating oral doses 0.1, 0.5, 0.65, 0.8 mg/kg
[6] = ≥ 0.5 mg/kg, both sexes, as low as

Sapanisertib accumulation with repeat dosing ([1]; day 1 to day 20): did not display accumulation | Sapanisertib accumulation with repeat dosing ([1]; day 1 to day 20, listed as sapanisertib): not observed to significantly accumulate | AUCINF (sapanisertib in plasma) [1, 3]: 247.5 (41%) hr^*ng/mL | V/F (sapanisertib) [1, 3]: 3.85 (34%) L/kg | V/F (sapanisertib) ([1]; Steady-state (Day 20), sapanisertib 0.1 mg/kg p.o. QOD, mean (%CV), n = 4): 3.97 (33%) L/kg | Sapanisertib plasma level at day 15 ([1]; approximately 24 h from the previous dose, Groups 2,3): minimal detectable | half-life ([1]; both sexes, beagle, dog, plasma, po, 0.1 mg/kg, 0.1 mg/kg p.o., day 1 to day 20, read-out: Sapanisertib half-life (range)): 4.8 to 6.8 h | AUC(0-inf) ([1]; both sexes, beagle, dog, plasma, po, 0.1 mg/kg, First dose (Day 1), sapanisertib 0.1 mg/kg p.o., mean (%CV), n = 4, read-out: AUCINF (sapanisertib in plasma)): 248 ng·h/mL | half-life ([1]; both sexes, beagle, dog, plasma, po, 0.1 mg/kg, First dose (Day 1), sapanisertib 0.1 mg/kg p.o., mean (%CV), n = 4, read-out: T1/2 (sapanisertib in plasma) (converted)): 5.94 h | Tmax ([1]; both sexes, beagle, dog, plasma, po, 0.1 mg/kg, First dose (Day 1), sapanisertib 0.1 mg/kg p.o., median (range), n = 4, read-out: TMAX (sapanisertib in plasma)): 2 h | Cmax ([1]; both sexes, beagle, dog, plasma, po, 0.1 mg/kg, Steady-state (Day 6), sapanisertib 0.1 mg/kg p.o. QOD, mean (%CV), n = 4): 28.1 ng/mL | Cmax ([1]; both sexes, beagle, dog, plasma, po, 0.1 mg/kg, Steady-state (Day 10), sapanisertib 0.1 mg/kg p.o. QOD, mean (%CV), n = 4): 23.6 ng/mL | AUC ([1]; both sexes, beagle, dog, plasma, po, 0.1 mg/kg, Steady-state (Day 20), sapanisertib 0.1 mg/kg p.o. QOD, mean (%CV), n = 4, read-out: AUCTAU (sapanisertib in plasma)): 250 ng·h/mL | Cmax ([1]; both sexes, beagle, dog, plasma, po, 0.1 mg/kg, Steady-state (Day 20), sapanisertib 0.1 mg/kg p.o. QOD, mean (%CV), n = 4): 27.4 ng/mL | half-life ([1]; both sexes, beagle, dog, plasma, po, 0.1 mg/kg, Steady-state (Day 20), sapanisertib 0.1 mg/kg p.o. QOD, mean (%CV), n = 4, read-out: T1/2 (sapanisertib in plasma) (converted)): 6.28 h | Tmax ([1]; both sexes, beagle, dog, plasma, po, 0.1 mg/kg, Steady-state (Day 20), sapanisertib 0.1 mg/kg p.o. QOD, median (range), n = 4, read-out: TMAX (sapanisertib in plasma)): 2 h | Tmax ([1]; both sexes, beagle, dog, plasma, po, 0.1 mg/kg, dogs, 0.1 mg/kg p.o., read-out: Sapanisertib Tmax on average): 2 h | CL/F ([1]; both sexes, beagle, dog, plasma, po, First dose (Day 1), sapanisertib 0.1 mg/kg p.o., mean (%CV), n = 4): 7.83 mL/min/kg | Cmax ([1]; both, beagle, dog, plasma, po, 0.1 mg/kg, First dose (Day 1), sapanisertib 0.1 mg/kg p.o., alone or with trametinib […] (see label), arithmetic mean (%CV), n = 4): 26.3 ng/mL | Mean animal to human exposure ratio, AUCINF [1, 4]: 1.31 | Mean animal to human exposure ratio, CMAX [1, 4]: 1.11 | Mean animal to human exposure ratio, T1/2 [1, 4]: 0.91 | Sapanisertib absorption time (range) ([1]; initial and repeat dose, 0.1 mg/kg p.o.): 1 to 4 h
Compound: CC(C)n1nc(-c2ccc3oc(N)nc3c2)c2c(N)ncnc21 [Sapanisertib]
Serum chloride, times the pre-study value ([2]; 0.8 mg/kg, male): 0.89 x | Serum sodium, times the pre-study value ([2]; 0.8 mg/kg, male): 0.98 x | Loss of body weight, female dog [2, 5]: 7% | Loss of initial body weight, male dog [2, 5]: approximately 19% | Dose at which dogs lost body weight ([2]; individual oral doses, 1 male and 1 female): ≥ 0.5 mg/kg | Red blood cell reticulocyte counts ([2]; ≥ 0.5 mg/kg, both sexes): moderate to marked decreases | Serum cholesterol concentrations ([2]; ≥ 0.5 mg/kg, both sexes): minimal to mild increases | Alanine aminotransferase (ALT), times the pre-study value [2, 6]: ≥ 0.41 x | Aspartate aminotransferase (AST), times the pre-study value [2, 6]: ≥ 0.68 x | Serum alkaline phosphatase (ALP), times the pre-study value [2, 6]: ≥ 0.36 x
